Measured values taken from ChEMBL document CHEMBL1126165, “Preparation and evaluation of some hydrophilic phenylacetyl-piperazines as peripherally selective -opioid receptor agonists” (Bioorg Med Chem Lett, 1992).

Key:
Mus musculus [1] = assay: Tested in vivo for antinociceptive activity using the mouse acetylcholine induced abdominal constriction test by subcutaneous (s.c.) administration; assay type: functional; settings: Abdomen, sc
[2] = Ratio of antinociceptive activity measured using mouse acetylcholine induced abdominal constriction test by s.c. administration to that done by i.c.v.; assay type: functional, Abdomen
[3] = Lipophilicity was expressed as Log D; settings: octanol/water
Mus musculus [4] = assay: Tested in vivo for antinociceptive activity using the mouse acetylcholine induced abdominal constriction test by intracerebroventricular (i.c.v.) administration; assay type: functional; settings: Abdomen, central

## CC(=O)N1CCN(C(=O)Cc2cc(F)cc(F)c2)C(CN2CC[C@H](O)C2)C1 (some centres not stated)
Mus musculus [1]
  ED50: 2.5 mg/kg
[2]
  Ratio: 417
[3]
  logD: 0.3
Mus musculus [4]
  ED50: 0.006 mg/kg

## COc1ccc(CC(=O)N2CCN(C(C)=O)CC2CN2CC[C@H](O)C2)cc1 (some centres not stated)
[3]
  logD: -0.1

## CC(=O)N1CCN(C(=O)Cc2cccc([N+](=O)[O-])c2)C(CN2CC[C@H](O)C2)C1 (some centres not stated)
Mus musculus [1]
  ED50: 0.74 mg/kg
Mus musculus [4]
  ED50: 0.006 mg/kg

## CC(=O)N1CCN(C(=O)Cc2ccccc2)C(CN2CC[C@H](O)C2)C1 (some centres not stated)
[3]
  logD: -0.1

## CC(=O)N1CCN(C(=O)Cc2ccc(C(F)(F)F)cc2)C(CN2CC[C@H](O)C2)C1 (some centres not stated)
Mus musculus [1]
  ED50: 0.76 mg/kg
[2]
  Ratio: 95
[3]
  logD: 1
Mus musculus [4]
  ED50: 0.008 mg/kg

## CC(=O)N1CCN(C(=O)Cc2ccc([S+](C)[O-])cc2)C(CN2CC[C@H](O)C2)C1 (some centres not stated)
[3]
  logD: < -0.5

## COc1cccc(CC(=O)N2CCN(C(C)=O)CC2CN2CC[C@H](O)C2)c1 (some centres not stated)
[3]
  logD: 0

## CC(=O)N1CCN(C(=O)Cc2ccc([N+](=O)[O-])cc2)C(CN2CC[C@H](O)C2)C1 (some centres not stated)
Mus musculus [1]
  ED50: 4.8 mg/kg
[2]
  Ratio: 200
[3]
  logD: 0
Mus musculus [4]
  ED50: 0.024 mg/kg

## CSc1ccc(CC(=O)N2CCN(C(C)=O)CC2CN2CC[C@H](O)C2)cc1 (some centres not stated)
Mus musculus [1]
  ED50: 1.52 mg/kg
[2]
  Ratio: 20
[3]
  logD: 0.6
Mus musculus [4]
  ED50: 0.075 mg/kg

## COC(=O)N1CCN(C(=O)Cc2ccc(Cl)c(Cl)c2)[C@H](CN2CCCC2)C1
Mus musculus [1]
  ED50: 0.0003 mg/kg
[2]
  Ratio: 1.5
[3]
  logD: 3.1
Mus musculus [4]
  ED50: 0.0002 mg/kg

## CC(=O)N1CCN(C(=O)Cc2ccc(S(C)(=O)=O)cc2)C(CN2CC[C@H](O)C2)C1 (some centres not stated)
Mus musculus [1]
  ED50: 2.21 mg/kg
[2]
  Ratio: 2762
[3]
  logD: < -0.5
Mus musculus [4]
  ED50: 0.0008 mg/kg

## CC(=O)N1CCN(C(=O)Cc2ccc(Cl)c(Cl)c2)C(CN2CC[C@H](O)C2)C1 (some centres not stated)
Mus musculus [1]
  ED50: 0.7 mg/kg
[2]
  Ratio: 100
[3]
  logD: 1.2
Mus musculus [4]
  ED50: 0.007 mg/kg

## CN(C(=O)Cc1ccc(Cl)c(Cl)c1)C(CN1CCCC1)c1cccc(OCC(=O)O)c1 (configuration not stated) [ICI-204448]
Mus musculus [1]
  ED50: 4.4 mg/kg
[3]
  logD: 0.3
Mus musculus [4]
  ED50: 0.13 mg/kg
